ChEMBL document CHEMBL3414499, “Characterization of two distinct structural classes of selective aldehyde dehydrogenase 1A1 inhibitors” (J Med Chem, 2015)
pIC50: −log10 of the molar value. The source made the active and inactive calls. The calls are words filed in the database; no cut-off is given here.

Key:
[1] = molecular target: T1, Aldehyde dehydrogenase, dimeric NADP-preferring (Homo sapiens) (UniProt P30838); assay: Activation of recombinant human ALDH3A1 using benzaldehyde as substrate at 100 uM preincubated for 2 mins with NAD+ followed by substrate addition by UV-Vis spectrophotometric analysis
T1 sequence (whole entry): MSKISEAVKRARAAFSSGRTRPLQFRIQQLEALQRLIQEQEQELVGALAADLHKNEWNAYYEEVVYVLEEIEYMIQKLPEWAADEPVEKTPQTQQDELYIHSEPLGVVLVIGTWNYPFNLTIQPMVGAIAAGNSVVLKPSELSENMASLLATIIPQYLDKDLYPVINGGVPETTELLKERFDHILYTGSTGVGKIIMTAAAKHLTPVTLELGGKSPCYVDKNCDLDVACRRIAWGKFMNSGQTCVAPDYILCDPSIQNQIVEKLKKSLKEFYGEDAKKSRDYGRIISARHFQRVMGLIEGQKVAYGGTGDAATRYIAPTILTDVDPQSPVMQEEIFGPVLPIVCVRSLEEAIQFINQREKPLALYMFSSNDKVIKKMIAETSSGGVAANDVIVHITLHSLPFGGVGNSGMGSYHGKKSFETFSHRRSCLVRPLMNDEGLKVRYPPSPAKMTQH

[2] = molecular target: T2, Retinaldehyde dehydrogenase 3 (Homo sapiens) (UniProt P47895); assay: Activation of recombinant human ALDH1A3 using propionaldehyde as substrate at 100 uM preincubated for 2 mins with NAD+ followed by substrate addition by UV-Vis spectrophotometric analysis
T2 sequence (whole entry): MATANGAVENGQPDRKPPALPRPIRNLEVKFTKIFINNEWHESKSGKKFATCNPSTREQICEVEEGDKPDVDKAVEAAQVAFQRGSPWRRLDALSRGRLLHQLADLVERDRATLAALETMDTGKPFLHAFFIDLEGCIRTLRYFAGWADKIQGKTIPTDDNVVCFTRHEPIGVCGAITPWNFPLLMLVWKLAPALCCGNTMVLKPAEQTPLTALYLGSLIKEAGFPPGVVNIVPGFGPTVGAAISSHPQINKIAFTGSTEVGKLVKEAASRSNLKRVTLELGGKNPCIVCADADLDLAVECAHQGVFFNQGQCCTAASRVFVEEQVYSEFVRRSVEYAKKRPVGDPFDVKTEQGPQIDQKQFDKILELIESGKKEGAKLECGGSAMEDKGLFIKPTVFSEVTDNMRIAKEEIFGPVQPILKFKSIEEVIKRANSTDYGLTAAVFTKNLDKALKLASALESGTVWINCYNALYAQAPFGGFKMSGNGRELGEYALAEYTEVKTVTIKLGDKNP

[3] = molecular target: T2, Retinaldehyde dehydrogenase 3 (Homo sapiens); assay: Activation of recombinant human ALDH1A3 using propionaldehyde as substrate at 20 uM preincubated for 2 mins with NAD+ followed by substrate addition by UV-Vis spectrophotometric analysis
[4] = molecular target: T1, Aldehyde dehydrogenase, dimeric NADP-preferring (Homo sapiens); assay: Activation of recombinant human ALDH3A1 using benzaldehyde as substrate at 20 uM preincubated for 2 mins with NAD+ followed by substrate addition by UV-Vis spectrophotometric analysis
[5] = molecular target: T1, Aldehyde dehydrogenase, dimeric NADP-preferring (Homo sapiens); assay: Inhibition of recombinant human ALDH3A1 using benzaldehyde as substrate at 100 uM preincubated for 2 mins with NAD+ followed by substrate addition by UV-Vis spectrophotometric analysis
[6] = molecular target: T2, Retinaldehyde dehydrogenase 3 (Homo sapiens); assay: Inhibition of recombinant human ALDH1A3 using propionaldehyde as substrate at 100 uM preincubated for 2 mins with NAD+ followed by substrate addition by UV-Vis spectrophotometric analysis
[7] = molecular target: T3, Aldehyde dehydrogenase, mitochondrial (Homo sapiens) (UniProt P05091); assay: Inhibition of recombinant human ALDH2 using propionaldehyde as substrate at 100 uM preincubated for 2 mins with NAD+ followed by substrate addition by UV-Vis spectrophotometric analysis
T3 sequence (whole entry): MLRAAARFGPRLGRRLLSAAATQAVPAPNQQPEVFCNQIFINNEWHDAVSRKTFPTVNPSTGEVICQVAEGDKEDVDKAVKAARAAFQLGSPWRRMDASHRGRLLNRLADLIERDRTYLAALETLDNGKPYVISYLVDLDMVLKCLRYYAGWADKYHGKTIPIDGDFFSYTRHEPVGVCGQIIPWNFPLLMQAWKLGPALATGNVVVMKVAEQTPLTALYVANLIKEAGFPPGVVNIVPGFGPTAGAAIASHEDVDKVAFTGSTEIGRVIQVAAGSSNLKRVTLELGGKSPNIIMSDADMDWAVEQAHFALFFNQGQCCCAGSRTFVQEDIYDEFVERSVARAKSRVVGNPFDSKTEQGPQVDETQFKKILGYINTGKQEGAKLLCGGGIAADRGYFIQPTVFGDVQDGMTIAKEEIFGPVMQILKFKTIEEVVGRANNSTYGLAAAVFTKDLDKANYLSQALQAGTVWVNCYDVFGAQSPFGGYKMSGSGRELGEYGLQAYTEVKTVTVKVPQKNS

[8] = molecular target: T4, Aldehyde dehydrogenase X, mitochondrial (Homo sapiens) (UniProt P30837); assay: Inhibition of recombinant human ALDH1B1 using propionaldehyde as substrate at 100 uM preincubated for 2 mins with NAD+ followed by substrate addition by UV-Vis spectrophotometric analysis
T4 sequence (whole entry): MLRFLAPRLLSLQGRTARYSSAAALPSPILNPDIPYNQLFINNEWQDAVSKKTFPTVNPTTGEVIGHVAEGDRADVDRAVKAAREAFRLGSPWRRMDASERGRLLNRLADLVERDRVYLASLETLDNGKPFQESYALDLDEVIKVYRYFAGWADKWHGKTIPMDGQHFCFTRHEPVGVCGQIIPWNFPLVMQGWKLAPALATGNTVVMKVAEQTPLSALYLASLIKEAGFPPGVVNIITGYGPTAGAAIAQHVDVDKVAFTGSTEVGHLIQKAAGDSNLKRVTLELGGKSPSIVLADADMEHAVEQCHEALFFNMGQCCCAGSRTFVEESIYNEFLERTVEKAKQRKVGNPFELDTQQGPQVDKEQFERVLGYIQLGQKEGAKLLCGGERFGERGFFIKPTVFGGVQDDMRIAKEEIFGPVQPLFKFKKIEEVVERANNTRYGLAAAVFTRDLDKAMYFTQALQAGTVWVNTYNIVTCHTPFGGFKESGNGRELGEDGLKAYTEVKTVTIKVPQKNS

[9] = molecular target: T5, Aldehyde dehydrogenase 1A1 (Homo sapiens) (UniProt P00352); assay: Inhibition of recombinant human ALDH1A1 using propionaldehyde as substrate at 100 uM preincubated for 2 mins with NAD+ followed by substrate addition by UV-Vis spectrophotometric analysis relative to control
T5 sequence (whole entry): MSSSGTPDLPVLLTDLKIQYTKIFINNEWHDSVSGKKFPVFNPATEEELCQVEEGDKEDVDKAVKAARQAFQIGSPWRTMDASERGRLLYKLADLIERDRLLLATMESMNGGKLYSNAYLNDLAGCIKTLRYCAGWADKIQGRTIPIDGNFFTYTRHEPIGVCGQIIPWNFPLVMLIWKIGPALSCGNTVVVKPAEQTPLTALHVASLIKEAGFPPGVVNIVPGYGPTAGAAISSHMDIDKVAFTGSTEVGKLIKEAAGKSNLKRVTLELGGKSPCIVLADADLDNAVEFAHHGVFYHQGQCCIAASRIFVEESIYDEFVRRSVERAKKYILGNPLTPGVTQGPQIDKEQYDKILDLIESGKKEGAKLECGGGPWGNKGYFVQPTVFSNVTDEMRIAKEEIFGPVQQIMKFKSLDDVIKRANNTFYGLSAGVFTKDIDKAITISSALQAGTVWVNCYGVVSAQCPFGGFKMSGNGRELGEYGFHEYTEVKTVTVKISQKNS

[10] = molecular target: T5, Aldehyde dehydrogenase 1A1 (Homo sapiens); assay: Effect on recombinant human ALDH1A1 using propionaldehyde as substrate up to 250 uM preincubated for 2 mins with NAD+ followed by substrate addition by UV-Vis spectrophotometric analysis
[11] = molecular target: T6, Retinal dehydrogenase 2 (Homo sapiens) (UniProt O94788); assay: Inhibition of recombinant human ALDH1A2 using propionaldehyde as substrate at 100 uM preincubated for 2 mins with NAD+ followed by substrate addition by UV-Vis spectrophotometric analysis
T6 sequence (whole entry): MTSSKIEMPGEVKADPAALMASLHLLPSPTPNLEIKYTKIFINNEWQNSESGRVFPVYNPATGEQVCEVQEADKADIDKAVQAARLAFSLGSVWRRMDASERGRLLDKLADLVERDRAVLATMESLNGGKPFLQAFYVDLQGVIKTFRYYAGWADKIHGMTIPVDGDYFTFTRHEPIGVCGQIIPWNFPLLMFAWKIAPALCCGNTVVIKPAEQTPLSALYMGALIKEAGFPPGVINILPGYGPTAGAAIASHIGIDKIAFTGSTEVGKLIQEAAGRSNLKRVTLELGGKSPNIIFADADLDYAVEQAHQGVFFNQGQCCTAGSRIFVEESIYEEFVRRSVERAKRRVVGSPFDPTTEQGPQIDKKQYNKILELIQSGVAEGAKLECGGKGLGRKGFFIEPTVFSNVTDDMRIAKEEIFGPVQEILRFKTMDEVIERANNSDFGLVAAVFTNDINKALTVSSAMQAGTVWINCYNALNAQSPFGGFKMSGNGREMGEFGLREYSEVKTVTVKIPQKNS

[12] = molecular target: T7, Retinaldehyde dehydrogenase 3 (Homo sapiens, UniProt P47895); assay: Inhibition of recombinant human ALDH1A3 using propionaldehyde as substrate preincubated for 2 mins with NAD+ followed by substrate addition by UV-Vis spectrophotometric analysis
T7 sequence (P47895 whole entry): T2 sequence (whole entry)

[13] = molecular target: T8, Aldehyde dehydrogenase, mitochondrial (Homo sapiens, UniProt P05091); assay: Inhibition of recombinant human ALDH2 using propionaldehyde as substrate preincubated for 2 mins with NAD+ followed by substrate addition by UV-Vis spectrophotometric analysis
T8 sequence (P05091 whole entry): T3 sequence (whole entry)

[14] = molecular target: T3, Aldehyde dehydrogenase, mitochondrial (Homo sapiens); assay: Activation of recombinant human ALDH2 using propionaldehyde as substrate at 20 uM preincubated for 2 mins with NAD+ followed by substrate addition by UV-Vis spectrophotometric analysis
[15] = molecular target: T6, Retinal dehydrogenase 2 (Homo sapiens); assay: Activation of recombinant human ALDH1A2 using propionaldehyde as substrate at 20 uM preincubated for 2 mins with NAD+ followed by substrate addition by UV-Vis spectrophotometric analysis
[16] = molecular target: T6, Retinal dehydrogenase 2 (Homo sapiens); assay: Activation of recombinant human ALDH1A2 using propionaldehyde as substrate at 100 uM preincubated for 2 mins with NAD+ followed by substrate addition by UV-Vis spectrophotometric analysis

| Activity [2] | Activity [3] [%] | Activity [4] [%] | inhibition [5] | inhibition [6] | Structure (SMILES) | further results |
| --- | --- | --- | --- | --- | --- | --- |
|  | < 10 | < 10 | inactive | inactive | CCN1CCN(Cc2nc3c(c(=O)n(C)c(=O)n3C)n2CCC(C)C)CC1 |  |
| Active | < 10 | < 10 |  |  | Cc1ccc(Cn2c(CN3CCN(c4ccccc4)CC3)nc3c2c(=O)n(C)c(=O)n3C)cc1 | Activity [1]: Active |
| Active | < 10 | < 10 | inactive |  | CCC1CCCCN1Cc1nc2c(c(=O)n(C)c(=O)n2C)n1Cc1cccc(C)c1 (centres undefined) |  |
|  |  |  | inactive | inactive | Cn1c(=O)c2c(ncn2C)n(C)c1=O | inhibition [9]: inactive; Activity [10]: inactive; inhibition [7]: inactive; inhibition [11]: inactive; inhibition [8]: inactive |
|  | < 10 | < 10 | inactive |  | CC(C)CCn1c(CN2CCC(C)CC2)nc2c1c(=O)n(C)c(=O)n2C | pIC50 [12]: < 4.00; pIC50 [13]: < 4.00; Activity [14]: < 10% |
| Active | < 10 | < 10 | inactive |  | Cc1cccc(Cn2c(CN3CCN(C(=O)c4ccco4)CC3)nc3c2c(=O)n(C)c(=O)n3C)c1 | Activity [15]: < 10%; Activity [16]: Active |

| Structure (SMILES) | Activity [2] | Activity [3] [%] | Activity [4] [%] | inhibition [5] | inhibition [6] | further results |
| --- | --- | --- | --- | --- | --- | --- |
| CC(C)CCn1c(CN2CCC(C(N)=O)CC2)nc2c1c(=O)n(C)c(=O)n2C | Active | < 10 | < 10 |  |  | Activity [1]: Active |
| Cn1c(=O)c2[nH]cnc2n(C)c1=O |  |  |  | inactive | inactive | inhibition [7]: inactive; inhibition [8]: inactive |
